# Literature values as cited in PubChem BioAssay AID1259409 (Chemical Carcinogenesis Research Information System (CCRIS), 2018).
# Test system: rodent chemically induced tumor inhibition, incidence and multiplicity
# Assay: CCRIS tumor inhibitor studies
compound,measurement,setting,value
O=C(OC[C@@H]1O[C@H](OC(=O)c2cc(O)c(O)c(OC(=O)c3cc(O)c(O)c(O)c3)c2)[C@@H](OC(=O)c2cc(O)c(O)c(OC(=O)c3cc(O)c(O)c(O)c3)c2)[C@H](OC(=O)c2cc(O)c(O)c(OC(=O)c3cc(O)c(O)c(O)c3)c2)[C@H]1OC(=O)c1cc(O)c(O)c(OC(=O)c2cc(O)c(O)c(O)c2)c1)c1cc(O)c(O)c(OC(=O)c2cc(O)c(O)c(O)c2)c1,"tumour outcome (control, treated, inhibition, significance)","Carcinogen: 2,2'-DIHYDROXY-DI-N-PROPYLNITROSAMINE, 53609-64-6, N-ETHYL-N-HYDROXYETHYLNITROSAMINE, 13147-25-6, 3,2'-DIMETHYL-4-AMINO-, Carcinogen: 2,2'-DIHYDROXY-DI-N-PROPYLNITROSAMINE, 53609-64-6, N-ETHYL-N-HYDROXYETHYLNITROSAMINE, 13147-25-6, 3,2'-DIMETHYL-4-AMINO-, Dose [Inhibitor]: 0, 1% IN DIET FOR 32 WK BEGINNING 1 WK POST CARCINOGEN TREATMENT (STUDY DURATION: 36 WK), Route [Inhibitor]: ORAL, Species: RAT, Strain/Sex: F344/MALE, Target Tissue: Type of Lesion: KIDNEY: TRANSITIONAL CELL CARCINOMA, Dose [Carcinogen]: 1000 MG/KG BW DHPN TWICE, 1500 MG/KG BW EHEN TWICE, 75 MG/KG BW DMAB 3 TIMES ADMINISTERED OVER FIRST 3 WK, Promoter: NONE USED","1/14 (7%), 0/12 (0%), 100%, not significant"
same,"tumour outcome (control, treated, inhibition, significance)","Carcinogen: 2,2'-DIHYDROXY-DI-N-PROPYLNITROSAMINE, 53609-64-6, N-ETHYL-N-HYDROXYETHYLNITROSAMINE, 13147-25-6, 3,2'-DIMETHYL-4-AMINO-, Carcinogen: 2,2'-DIHYDROXY-DI-N-PROPYLNITROSAMINE, 53609-64-6, N-ETHYL-N-HYDROXYETHYLNITROSAMINE, 13147-25-6, 3,2'-DIMETHYL-4-AMINO-, Dose [Inhibitor]: 0, 1% IN DIET FOR 32 WK BEGINNING 1 WK POST CARCINOGEN TREATMENT (STUDY DURATION: 36 WK), Route [Inhibitor]: ORAL, Species: RAT, Strain/Sex: F344/MALE, Target Tissue: Type of Lesion: LARGE INTESTINE: ADENOMA, Dose [Carcinogen]: 1000 MG/KG BW DHPN TWICE, 1500 MG/KG BW THEN TWICE, 75 MG/KG BW DMAB 3 TIMES ADMINISTERED OVER FIRST 3 WK, Dose [Carcinogen]: 1000 MG/KG BW DHPN TWICE, 1500 MG/KG BW THEN TWICE, 75 MG/KG BW DMAB 3 TIMES ADMINISTERED OVER FIRST 3 WK, Promoter: NONE USED","7/14 (50%), 2/12 (17%), 66%, not significant"
same,"tumour outcome (control, treated, inhibition, significance)","Carcinogen: 2,2'-DIHYDROXY-DI-N-PROPYLNITROSAMINE, 53609-64-6, N-ETHYL-N-HYDROXYETHYLNITROSAMINE, 13147-25-6, 3,2'-DIMETHYL-4-AMINO-, Carcinogen: 2,2'-DIHYDROXY-DI-N-PROPYLNITROSAMINE, 53609-64-6, N-ETHYL-N-HYDROXYETHYLNITROSAMINE, 13147-25-6, 3,2'-DIMETHYL-4-AMINO-, Dose [Inhibitor]: 0, 1% IN DIET FOR 32 WK BEGINNING 1 WK POST CARCINOGEN TREATMENT (STUDY DURATION: 36 WK), Route [Inhibitor]: ORAL, Species: RAT, Strain/Sex: F344/MALE, Target Tissue: Type of Lesion: LARGE INTESTINE: CARCINOMA, Dose [Carcinogen]: 1000 MG/KG BW DHPN TWICE, 1500 MG/KG BW THEN TWICE, 75 MG/KG BW DMAB 3 TIMES ADMINISTERED OVER FIRST 3 WK, Promoter: NONE USED","3/14 (21%), 1/12 (8%), 62%, not significant"
same,"tumour outcome (control, treated, inhibition, significance)","Carcinogen: 2,2'-DIHYDROXY-DI-N-PROPYLNITROSAMINE, 53609-64-6, N-ETHYL-N-HYDROXYETHYLNITROSAMINE, 13147-25-6, 3,2'-DIMETHYL-4-AMINO-, Carcinogen: 2,2'-DIHYDROXY-DI-N-PROPYLNITROSAMINE, 53609-64-6, N-ETHYL-N-HYDROXYETHYLNITROSAMINE, 13147-25-6, 3,2'-DIMETHYL-4-AMINO-, Dose [Inhibitor]: 0, 1% IN DIET FOR 32 WK BEGINNING 1 WK POST CARCINOGEN TREATMENT (STUDY DURATION: 36 WK), Route [Inhibitor]: ORAL, Species: RAT, Strain/Sex: F344/MALE, Target Tissue: Type of Lesion: LIVER: HEPATOCELLULAR CARCINOMA, Dose [Carcinogen]: 1000 MG/KG BW DHPN TWICE, 1500 MG/KG BW THEN, 75 MG/KG BW DMAB 3 TIMES ADMINISTERED OVER FIRST 3 WKS, Promoter: NONE USED","6/14 (43%), 3/12 (25%), 42%, not significant"
same,"tumour outcome (control, treated, inhibition, significance)","Carcinogen: 2,2'-DIHYDROXY-DI-N-PROPYLNITROSAMINE, 53609-64-6, N-ETHYL-N-HYDROXYETHYLNITROSAMINE, 13147-25-6, 3,2'-DIMETHYL-4-AMINO-, Carcinogen: 2,2'-DIHYDROXY-DI-N-PROPYLNITROSAMINE, 53609-64-6, N-ETHYL-N-HYDROXYETHYLNITROSAMINE, 13147-25-6, 3,2'-DIMETHYL-4-AMINO-, Dose [Inhibitor]: 0, 1% IN DIET FOR 32 WK BEGINNING 1 WK POST CARCINOGEN TREATMENT (STUDY DURATION: 36 WK), Route [Inhibitor]: ORAL, Species: RAT, Strain/Sex: F344/MALE, Target Tissue: Type of Lesion: LUNG: ADENOMA, Dose [Carcinogen]: 1000 MG/KG BW DHPN TWICE, 1500 MG/KG BW THEN TWICE, 75 MG/KG BW DMAB 3 TIMES ADMINISTERED OVER FIRST 3 WK, Dose [Carcinogen]: 1000 MG/KG BW DHPN TWICE, 1500 MG/KG BW THEN TWICE, 75 MG/KG BW DMAB 3 TIMES ADMINISTERED OVER FIRST 3 WK, Promoter: NONE USED","7/14 (50%), 7/12 (58%), -16%, not significant"
same,"tumour outcome (control, treated, inhibition, significance)","Carcinogen: 2,2'-DIHYDROXY-DI-N-PROPYLNITROSAMINE, 53609-64-6, N-ETHYL-N-HYDROXYETHYLNITROSAMINE, 13147-25-6, 3,2'-DIMETHYL-4-AMINO-, Carcinogen: 2,2'-DIHYDROXY-DI-N-PROPYLNITROSAMINE, 53609-64-6, N-ETHYL-N-HYDROXYETHYLNITROSAMINE, 13147-25-6, 3,2'-DIMETHYL-4-AMINO-, Dose [Inhibitor]: 0, 1% IN DIET FOR 32 WK BEGINNING 1 WK POST CARCINOGEN TREATMENT (STUDY DURATION: 36 WK), Route [Inhibitor]: ORAL, Species: RAT, Strain/Sex: F344/MALE, Target Tissue: Type of Lesion: LUNG: CARCINOMA, Dose [Carcinogen]: 1000 MG/KG BW DHPN TWICE, 1500 MG/KG BW THEN TWICE, 75 MG/KG BW DMAB 3 TIMES ADMINISTERED OVER FIRST 3 WK, Promoter: NONE USED","1/14 (7%), 2/12 (17%), -143%, not significant"
same,"tumour outcome (control, treated, inhibition, significance)","Carcinogen: 2,2'-DIHYDROXY-DI-N-PROPYLNITROSAMINE, 53609-64-6, N-ETHYL-N-HYDROXYETHYLNITROSAMINE, 13147-25-6, 3,2'-DIMETHYL-4-AMINO-, Carcinogen: 2,2'-DIHYDROXY-DI-N-PROPYLNITROSAMINE, 53609-64-6, N-ETHYL-N-HYDROXYETHYLNITROSAMINE, 13147-25-6, 3,2'-DIMETHYL-4-AMINO-, Dose [Inhibitor]: 0, 1% IN DIET FOR 32 WK BEGINNING 1 WK POST CARCINOGEN TREATMENT (STUDY DURATION: 36 WK), Route [Inhibitor]: ORAL, Species: RAT, Strain/Sex: F344/MALE, Target Tissue: Type of Lesion: THYROID GLAND: CARCINOMA, Dose [Carcinogen]: 1000 MG/KG BW DHPN TWICE, 1500 MG/KG BW THEN TWICE, 75 MG/KG BW DMAB 3 TIMES ADMINISTERED OVER FIRST 3 WK, Promoter: NONE USED","3/14 (21%), 2/12 (17%), 19%, not significant"
same,"tumour outcome (control, treated, inhibition, significance)","Carcinogen: 2,2'-DIHYDROXY-DI-N-PROPYLNITROSAMINE, 53609-64-6, N-ETHYL-N-HYDROXYETHYLNITROSAMINE, 13147-25-6, 3,2'-DIMETHYL-4-AMINO-, Carcinogen: 2,2'-DIHYDROXY-DI-N-PROPYLNITROSAMINE, 53609-64-6, N-ETHYL-N-HYDROXYETHYLNITROSAMINE, 13147-25-6, 3,2'-DIMETHYL-4-AMINO-, Dose [Inhibitor]: 0, 1% IN DIET FOR 32 WK BEGINNING 1 WK POST CARCINOGEN TREATMENT (STUDY DURATION: 36 WK), Route [Inhibitor]: ORAL, Species: RAT, Strain/Sex: F344/MALE, Target Tissue: Type of Lesion: URINARY BLADDER: CARCINOMA, Dose [Carcinogen]: 1000 MG/KG BW DHPN TWICE, 1500 MG/KG BW THEN TWICE, 75 MG/KG BW DMAB 3 TIMES ADMINISTERED OVER FIRST THREE WEEKS, Promoter: NONE USED","1/14 (7%), 2/12 (17%), -143%, not significant"
same,outcome,"Carcinogen: 2,2'-DIHYDROXY-DI-N-PROPYLNITROSAMINE, 53609-64-6, N-ETHYL-N-HYDROXYETHYLNITROSAMINE, 13147-25-6, 3,2'-DIMETHYL-4-AMINO-, Carcinogen: 2,2'-DIHYDROXY-DI-N-PROPYLNITROSAMINE, 53609-64-6, N-ETHYL-N-HYDROXYETHYLNITROSAMINE, 13147-25-6, 3,2'-DIMETHYL-4-AMINO-, Dose [Inhibitor]: 0, 1% IN DIET FOR 32 WK BEGINNING 1 WK POST CARCINOGEN TREATMENT (STUDY DURATION: 36 WK), Route [Inhibitor]: ORAL, Species: RAT, Strain/Sex: F344/MALE, Target Tissue: Type of Lesion: URINARY BLADDER: PAPILLOMA, Dose [Carcinogen]: 1000 MG/KG BW DHPN TWICE, 1500 MG/KG BW THEN TWICE, 75 MG/KG BW DMAB 3 TIMES ADMINISTERED OVER FIRST 3 WK, Promoter: NONE USED","0/14 (0%), 3/12 (25%), -100%, not significant"
same,"tumour outcome (control, treated, inhibition, significance)","Carcinogen: 7,12-DIMETHYLBENZ(A)ANTHRACENE [57-97-6], Dose [Inhibitor]: 400 UG IN 200 µL ACETONE ONCE 24 HR AFTER THE LAST INJECTION OF IRON DEXTRAN (STUDY DURATION: 35 WKS), Route [Inhibitor]: DERMAL, Species: MOUSE, Strain/Sex: SWISS ALBINO/FEMALE, Target Tissue: Type of Lesion: SKIN: TUMORS, Dose [Carcinogen]: 40 UG IN 200 µL ACETONE DAILY FOR 5 D BEGINNING 1 HR AFTER TANNIC ACID TREATMENT (STUDY DURATION: 35 WKS), Promoter: IRON DEXTRAN [9004-66-4]","70%, 10%, 86%, not calculated"
same,"tumour outcome (control, treated, inhibition, significance)","Carcinogen: 7,12-DIMETHYLBENZ(A)ANTHRACENE [57-97-6], Dose [Inhibitor]: 400 UG IN 200 µL ACETONE ONCE (STUDY DURATION: 35 WKS), Route [Inhibitor]: DERMAL, Species: MOUSE, Strain/Sex: SWISS ALBINO/FEMALE, Target Tissue: Type of Lesion: SKIN: TUMORS, Dose [Carcinogen]: 40 UG IN 200 µL ACETONE DAILY FOR 5 D BEGINNING 1 HR AFTER TANNIC ACID TREATMENT (STUDY DURATION: 35 WKS)","40%, 0%, 100%, not calculated"
